Article PMC11574045, “A cofactor-induced repressive type of transcription factor condensation can be induced by synthetic peptides to suppress tumorigenesis” (The EMBO Journal, 2024)
Ends that are not written are not given here.

Experiments:
TEAD4 [1] = molecular target: T1, TEAD4 (Homo sapiens, UniProt Q15561); experiment: FRAP of TEAD4 droplets formed from purified protein; type: biochemical; settings: purified TEAD4 protein treated with FAM-GLUP
T1 construct: His; made in house; host or cells: Escherichia coli BL21(DE3)
Source text: (A) Schematic of the strategy of the initial version of a linker peptide termed “glup”. […] The two TEAD4 molecules are colored cyan and blue, respectively. […] Monomer, dimer, and oligomer TEAD4 bands are labeled. (D) Schematic illustration of an optimized version of the linker peptide (referred to as GLUP). […] (F) Comparison of glup with GLUP. MW, molecular weight. […] The quantification graph represents the data collected from 10 images (n = 10). Data shown as means ± SD represent the representative results from two independent experiments. Significance was tested using one-way ANOVA, followed by the Tukey’s post-hoc test. *p < 0.05; ****p < 0.0001. NaCl (+), 20 mM; NaCl (++), 150 mM; NaCl (+++), 500 mM. Scale bar, 10 μm. […] For each photobleached spot, the fluorescence recovery curve was traced. The graph represents the data collected from 5 droplets (n = 5). t1/2: fluorescence recovery time; Rf: mobile fraction. […] The quantification graph represents the data collected from 9 cells (n = 9). […] The data were analyzed using one-way ANOVA, followed by the Tukey’s post-hoc test. n.s., no significance; ****p < 0.0001. […] Three images were gradually taken during pre-bleach, bleaching pulses, followed by fluorescence recovery as indicated on the graph (left). […] White circles indicated the bleaching condensates. t1/2: fluorescence recovery time; Rf: mobile fraction. […]

TEAD4 [2] = molecular target: T1, TEAD4; experiment: Dynamic light scattering (DLS) of TEAD4 oligomerization; type: biochemical; settings: after 10–20 min incubation with glup (10 μg/ml); TEAD4:glup molar ratio 10:1, 4 °C; DLS at 25 °C
Description: In the case of glup, the mixtures were incubated at 4 °C for various periods of time as indicated in related figures. And then the mixtures were subjected to dynamic light scattering analysis at 25 °C. Scattered light was measured at a 90° angle at a wavelength of 658 nm.

HGC-27 cells = experiment: Colony formation; type: cell-based, human; settings: colony formation: GLUP 2 μg/ml (1 μM) every 2 days for 2 weeks
Description: (A) Cell viability levels of HGC-27 cells treated with indicated concentrations (0, 5, 10, 20, 40 μg/ml) of GLUP for 48 h (three biological replicates, n = 3). Data shown as means ± SD represent the representative results from two independent experiments. (B) Colony formation of HGC-27 cells treated with GLUP every 2 days for a 2-week duration (three biological replicates, n = 3). GLUP, 2 μg/ml (1 μM). (C) Cell viability levels of the indicated cells (from 10 different lines) treated with GLUP. […] IC50 values for the treatments of these cells with GLUP (lower). […] The box plots showing the minima, maxima, center, bounds of box and whiskers and percentiles (upper quartile, median and lower quartile). Data shown as means ± SD represent the representative results from two independent experiments. Significance was tested using the unpaired t test, ***p < 0.001. (D) Cell viability of TEAD4-overexpressing AGS cells treated with GLUP for 48 h (three biological replicates, n = 3). Data shown as means ± SD represent the representative results from two independent experiments. (E) Cell viability levels of four lines of patient-derived cells (PDCs) treated with GLUP. […] The quantification graph represents the data collected from 14 cells (n = 14). […] Tumor areas were measured (right, n = 8/group) and indicated in red circles. […]

chromatin = experiment: N-SIM imaging of DAPI-labeled chromatin in cells; type: cell-based; settings: GLUP 1 μg/ml (0.5 μM)
Source text: Next, we used structure illumination microscopy (N-SIM) to examine deformation of DAPI-labeled chromatin in cells overexpressing VGLL4. […] To further address this issue, we performed colloidal gold staining using TEAD4 antibody to observe the status of chromatin around TEAD4.
To confirm cellular entry of GLUP, we performed immunostaining of live cells treated with a fluorescein-labeled version of the peptide (FAM-GLUP). […] We then examined the potential effect of GLUP on TEAD4-mediated perturbation of DNA conformation.

T1 sequence (Q15561 whole entry): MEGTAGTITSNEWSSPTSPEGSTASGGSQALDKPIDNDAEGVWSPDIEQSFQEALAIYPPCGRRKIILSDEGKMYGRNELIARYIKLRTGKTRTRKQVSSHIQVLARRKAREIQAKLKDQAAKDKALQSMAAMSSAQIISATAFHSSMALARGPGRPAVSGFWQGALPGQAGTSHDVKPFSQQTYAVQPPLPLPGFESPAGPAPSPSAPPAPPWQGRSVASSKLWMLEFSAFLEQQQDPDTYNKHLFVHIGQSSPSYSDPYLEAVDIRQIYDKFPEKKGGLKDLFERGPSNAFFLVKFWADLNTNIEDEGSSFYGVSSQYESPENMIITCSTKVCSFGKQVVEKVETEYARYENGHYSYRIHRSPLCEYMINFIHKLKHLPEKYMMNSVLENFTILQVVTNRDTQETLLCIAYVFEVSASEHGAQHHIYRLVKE

## RRVCVHFHFSLSLR-NH2 (C-terminus assumed) [glup]
TEAD4 [1]
  mobile fraction (FRAP): about 86%
TEAD4 [2]
  TEAD4 oligomerization by DLS: formed dimers or oligomers of high molecular weight
HGC-27 cells
  Viability and colony formation: obvious reduction in both the viability and colony formation
chromatin
  Effect on chromatin distribution: substantially disturbed chromatin distribution and organization
